Where two headings read alike, the source gives them in different places.
What was measured:
human 5-HT2B receptor = human 5-HT2B receptor (Homo sapiens, UniProt P41595); experiment: Human 5-HT2B radioligand binding assay ([3H]-LSD)
Experimental: The objective of this study was to evaluate the binding properties of test compounds on 5-HT2B.
1) The assay buffer was prepared following Table 29 below.
2) Eight doses of reference and test compounds starting from 10 mM stock solution as requested by 5-fold serial dilutions with 100% (v/v) DMSO.
3) UniFilter-96 GF/B plate was pretreated: • a. 50 μL/well of 0.5% (v/v) PEI to UniFilter-96 GF/B plates. The plates were sealed and incubated at 4° C. for 3 hrs. • b. After incubation, the plates were washed 3 times with ice-cold wash buffer (50 mM Tris, pH 7.4).
4) Assay plate preparation: • a. Cell membrane was diluted with assay buffer and 330 μL/well added to 96 round deep well plates to reach a concentration of 1 unit/well. • b. Eight concentrations of reference or test compounds were prepared and 110 μL/well added to 96 round deep well plates. • c. [3H]-LSD was diluted with assay buffer to 5 nM (5× final concentration) and 110 μL/well was added to 96 round deep well plates.
5) The plate was centrifuged at 1000 rpm for 30 secs and then agitated at 600 rpm at room temperature for 5 mins.
6) The plates were sealed and incubated at 37° C. for 90 mins.
7) The incubation was stopped by vacuum filtration onto GF/B filter plates followed by washing four times with ice-cold wash buffer (50 mM Tris, pH7.4).
9) The filter plates were sealed and 40 μL/well of scintillation cocktail was added.
10) The plate was read using a Microbeta2 microplate counter.
For reference and test compounds, the results are expressed as % Inhibition, using the normalization equation: N=100−100×(U−C2)/(C1−C2), where U is the unknown value, C1 is the average of high controls, and C2 is the average of low controls. The IC50 is determined by fitting percentage of inhibition as a function of compound concentrations with Hill equation.
The objective of this study is to evaluate the binding properties of test compounds on 5-HT2B.
1) The assay buffer was prepared following Table 59 below.
3) UniFilter-96 GF/B plate was pretreated: • a. 50 μL/well of 0.5% (v/v) PEI to UniFilter-96 GF/B plates. The plates were sealed and incubate at 4° C. for 3 hrs. • b. After incubation, the plates were washed three times with ice-cold wash buffer (50 mM Tris, pH7.4).
5) The plate was centrifuged at 1000 rpm for 30 secs and then agitated at 600 rpm at room temperature for 5 min.
8) The plates were dried at 37° C. for 45 mins.
10) The plate was read using a Microbeta^2 microplate counter.
For reference and test compounds, the results are expressed as % Inhibition, using the normalization equation: N=100−100×(U−C2)/(C1−C2), where U is the unknown value, C1 is the average of the high controls, and C2 is the average of the low controls. The IC50 is determined by fitting percentage of inhibition as a function of compound concentrations with Hill equation.

[1] = Liver microsomes stability, rat; format: in vitro ADME; conditions: for half-life at 2 μM / microsomal CLint at 2 μM / CLint scaled at 2 μM: male; for CLint scaled at 2 μM: read-out: Scaled-up CLint
Experimental: The objective of this study was to estimate in vitro metabolic stability of exemplary compounds of Formula (I) or a pharmaceutically acceptable salt, solvate, and/or prodrug thereof in pooled human, male rat, and male mouse liver microsomes. The concentrations of compounds in reaction systems were evaluated by LC-MS/MS for estimating the stability in pooled human, male rat, and male mouse liver microsomes. The in vitro intrinsic clearances of test compounds were determined as well.
A master solution in the “Incubation Plate” containing phosphate buffer, ultra-pure H2O, MgCl2 solution and liver microsomes was made according to Table 33. The mixture was pre-warmed at 37° C. water bath for 5 minutes.
40 μL of 10 mM nicotinamide adenine dinucleotide phosphate (NADPH) solution was added to each well. The final concentration of NADPH was 1 mM. The negative control samples were prepared by replacing NADPH with 40 μL of ultra-pure H2O. Samples were prepared in duplicate. Negative controls were prepared in singlet.
The reaction was started with the addition of 4 μL of 200 μM exemplary test compounds of the disclosure or control compounds to each master solution to get the final concentration of 2 μM. This study was performed in duplicate.
Aliquots of 50 μL were taken from the reaction solution at 0, 15, 30, 45, and 60 minutes. The reaction solutions were stopped by the addition of 4 volumes of cold methanol with IS (100 nM alprazolam, 200 nM imipramine, 200 nM labetalol, and 2 μM ketoprofen). Samples were centrifuged at 3,220 g for 40 minutes. Aliquot of 90 μL of the supernatant was mixed with 90 μL of ultra-pure H2O and then was used for LC-MS/MS analysis.
LC/MS analysis was performed for all samples from this study using a Shimadzu liquid chromatograph separation system equipped with degasser DGU-20A5R; solvent delivery unit LC-30AD; system controller SIL-30AC; column oven CTO-30A; CTC Analytics HTC PAL System. Mass spectrometric analysis was performed using a Triple Quad™ 5500 instrument.
All calculations were carried out using Microsoft Excel. Peak area ratios of test compound to internal standard (listed in the below table) were determined from extracted ion chromatograms.
All calculations were carried out using Microsoft Excel. Peak areas were determined from extracted ion chromatograms. The slope value, k, was determined by linear regression of the natural logarithm of the remaining percentage of the parent drug vs. incubation time curve.
The in vitro half-life (in vitro t1/2) was determined from the slope value:
Conversion of the in vitro t1/2 (min) into the in vitro intrinsic clearance (in vitro CLint, in μL/min/mg proteins) was done using the following equation (mean of duplicate determinations): […]
The objective of this study was to estimate in vitro metabolic stability of exemplary compounds of Formula (I) or a pharmaceutically acceptable salt, solvate and/or prodrug thereof in pooled human, male rat and male mouse liver microsomes. The concentrations of compounds in reaction systems were evaluated by LC-MS/MS for estimating the stability in pooled human, male rat and male mouse liver microsomes. The in vitro intrinsic clearances of test compounds were determined as well.
A master solution in the “Incubation Plate” containing phosphate buffer, ultra-pure H2O, MgCl2 solution and liver microsomes was made according to Table 67. The mixture was pre-warmed at 37° C. water bath for 5 minutes.
40 μL of 10 mM NADPH solution was added to each well. The final concentration of NADPH was 1 mM. The negative control samples were prepared by replacing NADPH with 40 μL of ultra-pure H2O. Samples were prepared in duplicate. Negative controls were prepared in singlet
Aliquots of 50 μL were taken from the reaction solution at 0, 15, 30, 45 and 60 minutes. The reaction solutions were stopped by the addition of 4 volumes of cold methanol with IS (100 nM alprazolam, 200 nM imipramine, 200 nM labetalol and 2 μM ketoprofen). […]

[2] = [3H]-LSD displacement, cell membrane, 37° C., 90 min, read-out: 5-HT2B, IC50
[3] = [3H]-LSD displacement, cell membrane, 37° C., 90 min, read-out: 5-HT2B, Ki
[4] = rat liver microsomes, 2 μM compound, 0.5 mg/mL microsomes
[5] = rat liver microsomes, With Cofactors, 0 min
[6] = rat liver microsomes, With Cofactors, 30 min
[7] = rat liver microsomes, With Cofactors, 60 min
[8] = rat liver microsomes, Without Cofactors, 0 min
[9] = rat liver microsomes, Without Cofactors, 30 min
[10] = rat liver microsomes, Without Cofactors, 60 min
[11] = Rat liver microsomes, 2 μM, 0.5 mg/mL, NADPH

Sequence of human 5-HT2B receptor (P41595 whole entry): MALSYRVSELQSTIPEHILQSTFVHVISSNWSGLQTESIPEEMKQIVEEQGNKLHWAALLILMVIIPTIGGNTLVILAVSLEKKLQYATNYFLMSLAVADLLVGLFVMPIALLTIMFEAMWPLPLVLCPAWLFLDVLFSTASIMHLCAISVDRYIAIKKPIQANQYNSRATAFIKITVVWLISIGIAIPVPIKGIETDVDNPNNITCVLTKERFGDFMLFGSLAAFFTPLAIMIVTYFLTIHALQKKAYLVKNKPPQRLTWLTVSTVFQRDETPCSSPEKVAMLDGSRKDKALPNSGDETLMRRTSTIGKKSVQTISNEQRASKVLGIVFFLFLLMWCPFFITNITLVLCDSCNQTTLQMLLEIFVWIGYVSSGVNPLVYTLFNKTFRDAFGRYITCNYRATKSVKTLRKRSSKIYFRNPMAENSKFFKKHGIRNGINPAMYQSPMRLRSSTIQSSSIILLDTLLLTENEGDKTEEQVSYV

SMILES | IC50 (human 5-HT2B receptor; [2]) | Ki (human 5-HT2B receptor; [3]) | half-life at 2 μM [1, 4] | microsomal CLint at 2 μM [1, 4] | CLint scaled at 2 μM ([1]; rat liver microsomes) | Predicted hepatic CL ([1]; rat liver microsomes) | Remaining Percentage [1, 5] | Remaining Percentage [1, 6] | Remaining Percentage [1, 7] | Remaining Percentage [1, 8] | Remaining Percentage [1, 9] | Remaining Percentage [1, 10] | also measured
[2H]C([2H])(c1c[nH]c2ccc(OCCCCCN3C(=O)C4CCCCC4C3=O)cc12)[C@H]1CCCN1C([2H])([2H])[2H] (mixture of isomers) [Rac (R) I-248] | 46.3 nM | 23.9 nM | < 4.51 min | > 307 µL/min/mg | > 550 mL/min/kg | >50.17 mL/min/kg | 100.00% | 0.95% | 0.19% | 100.00% | 94.04% | 94.04% | 
[2H]C([2H])(c1c[nH]c2ccc(OCCCCN3C(=O)c4ccccc4C3=O)cc12)[C@H]1CCCN1C([2H])([2H])[2H] [(R) I-244, (R)-2-(4-((3-((1-(Methyl-d3)pyrrolidin-2-yl)methyl-d2)-1H-indol-5-yl)oxy)butyl)isoindoline-1,3-dione] | 21.4 nM | 11.1 nM | 6.89 min | 201 µL/min/mg | 360 mL/min/kg | 47.87 mL/min/kg | 100.00% | 4.90% | 0.57% | 100.00% | 94.87% | 87.40% | 
CSc1ccc2[nH]cc(C[C@H]3CCCN3C)c2c1 [(R) I-1, (R)-3-((1-Methylpyrrolidin-2-yl)methyl)-5-(methylthio)-1H-indole] |  |  |  |  |  |  |  |  |  |  |  |  | IC50 (human 5-HT2B receptor): 19 nM; Ki (human 5-HT2B receptor): 9.82 nM; Predicted hepatic CL ([1]; Rat liver microsomes): 44.80 mL/min/kg; Remaining Percentage (%) 0 min ([1]; Rat liver microsomes, With Cofactors, 0 min): 100.00%; Remaining Percentage (%) 30 min ([1]; Rat liver microsomes, With Cofactors, 30 min): 13.67%; Remaining Percentage (%) 60 min ([1]; Rat liver microsomes, With Cofactors, 60 min): 0.44%; Remaining Percentage (%) 0 min ([1]; Rat liver microsomes, Without Cofactors, 0 min): 100.00%; Remaining Percentage (%) 30 min ([1]; Rat liver microsomes, Without Cofactors, 30 min): 93.44%; Remaining Percentage (%) 60 min ([1]; Rat liver microsomes, Without Cofactors, 60 min): 95.17%; half-life at 2 μM [1, 11]: 10.4 min; microsomal CLint at 2 μM [1, 11]: 133 µL/min/mg; CLint scaled at 2 μM ([1]; Rat liver microsomes): 238 mL/min/kg
[2H]C([2H])(c1c[nH]c2ccc(OCCCCCN3C(=O)c4ccccc4C3=O)cc12)[C@H]1CCCN1C([2H])([2H])[2H] [(R) I-245, (R)-2-(5-((3-((1-(Methyl-d3)pyrrolidin-2-yl)methyl-d2)-1H-indol-5-yl)oxy)pentyl)isoindoline-1,3-dione] |  |  | < 4.51 min | > 307 µL/min/mg | > 550 mL/min/kg | >50.17 mL/min/kg | 100.00% | 0.62% | 0.00% | 100.00% | 95.83% | 94.10% | 
COCCN1CCC[C@@H]1Cc1c[nH]c2ccc(OC)cc12 [(R) I-98, (R)-5-Methoxy-3-((1-(2-methoxyethyl)pyrrolidin-2-yl)methyl)-1H-indole] | 45.6 nM | 23.6 nM | 10 min | 138 µL/min/mg | 248 mL/min/kg | 45.13 mL/min/kg |  | 100.00% | 14.43% |  | 100.00% | 103.23% | 

Reference: patent US12606543B2, “Indole derivatives as serotonergic agents useful for the treatment of disorders related thereto” (priority 2023, dated 2026)
